This is an account of results in a melting point compilation (Tetko et al.; mined from patent text by program, amines drawn as free bases though some values may be those of a salt).

As usually defined, the melting point is the temperature of the solid-liquid transition. Take `Cc1cccc(Nc2cc(Nc3ccc(OCC(=O)N(C)C)cc3)ncn2)c1`: the melting point fell in the range of 135 to 138 °C.

As to `CCOC(=O)CCCCn1c(=O)[nH]c2ccc(OCOCCOC)cc2c1=O`, the melting point lay in the range of 105 to 107 °C.

Molecule `CCOC(=O)OC1Oc2ccc(OS(C)(=O)=O)cc2C1(C)C` (configuration not stated) had a melting point of 85 to 87 °C.

`COc1cc(Nc2c(C#N)cnc3cc(-c4ccc(CN(C)C)cc4)sc23)cc(OC)c1OC` showed a melting point of 199 to 201 °C.

For `OCc1cc2c(Cl)ccc(Br)c2s1`, the melting point lay in the range of 141 to 143 °C.

As to `CCCc1c(CSc2nnc(S)s2)ccc(C(C)=O)c1O`, the melting point lay in the range of 133 to 135 °C.

The molecule `CC(=O)N(O)Cc1ccc(C(O)C#Cc2ccsc2)cc1` (configuration not stated) came in with a melting point of 126 to 129 °C.

`O=C1Nc2ccccc2OCC1N1C(=O)c2ccccc2C1=O` (configuration not stated) returned a melting point of 188 to 193 °C.

Consider `O=[N+]([O-])c1ccccc1Nc1ccc(-c2ccc(Nc3ccccc3[N+](=O)[O-])cc2)cc1`, for which the melting point was in the range of 211 to 222 °C.

`OC1CCc2c1cccc2-n1cccc1` (configuration not stated) came in with a melting point of 80 to 81 °C.

Molecule `Cc1nc(Nc2ccccc2)sc1-c1nc2ccccc2c(=O)n1-c1ccccc1` registered a melting point of 260 to 262 °C.

On to `O=C(OCc1ccccc1)c1ccc(OCc2cccc(COc3ccc(C(=O)OCc4ccccc4)cc3)c2)cc1`, for which the melting point was in the range of 92.5 to 93.8 °C.

Molecule `COC(=O)N(C)CCc1ccc2[nH]cc(S(=O)(=O)c3ccccc3)c2c1` yielded a melting point of 195 to 197 °C.

For `CCCCCCCCCCCCS(=O)(=O)N1CCCSC1=C(Br)[N+](=O)[O-]`, the melting point was 70 to 71 °C.

For the molecule `CC(OC(=O)C12CC3CC(CC(C3)C1)C2)c1ccncc1` (single isomer, unassigned; (-)), the melting point lay in the range of 164 to 166 °C.

Consider `C[C@]12CCC(=O)N[C@@H]1CCc1cc(Sc3cnc4ccccc4c3)ccc12`, for which the melting point lay within 168 to 170 °C.

In turn, `CCN(CC)CCn1nc2c3c(cccc31)Sc1ccccc1-2` gave a melting point of 49 to 50.5 °C.

`O=S1(=O)c2cccc3cccc(c23)N1CCCCN1CCN(c2nsc3ccccc23)CC1` had a melting point of 123 °C.

As to `CN1C(=O)CNN(c2cc(Cl)c(Oc3ccc(S(C)(=O)=O)cc3)c(Cl)c2)C1=O`, the melting point stood at 217 °C.

The molecule `Cc1ccc(S(=O)(=O)OC2CON(C(=O)OC(C)(C)C)C2)cc1` (configuration not stated) returned a melting point of 63 to 65 °C.

Molecule `Cc1nn(-c2ccccc2)c(C)c1CC(N)=O` registered a melting point of 169 to 170 °C.

Molecule `CS(=O)(=O)O[C@H]1CC[C@H](Nc2ccnc3cc(Cl)ccc23)CC1` registered a melting point of 154 to 159 °C.

As to `CN1CCCC1CC(O)c1cccc(O)c1` (configuration not stated), the melting point was in the range of 147 to 150 °C.

For `CNC(=O)CCc1ccc(F)cc1F`, the melting point lay within 90 to 91 °C.

The molecule `CN(C)CCOc1cc2c(Nc3ccc(Cl)cc3Cl)c(C#N)cnc2cn1` registered a melting point of 75 to 79 °C.

With `CC1COc2c(F)c(F)c(N)c3c(=O)[nH]c(=O)n1c23` (configuration not stated), the melting point was > 280 °C.

`CCCSC(Cn1ccnc1)(SCCC)c1ccc2ccccc2c1` returned a melting point of 188 to 190 °C.

In turn, `COc1cccc(-c2ccc3ccc(OC)cc3c2)c1` showed a melting point of 58 to 59 °C.

`CC(CO)Oc1ccc2c(c1)c(-c1cc3cccnc3[nH]1)cn2C` (configuration not stated) showed a melting point of 164 to 165 °C.

The molecule `CC(N)=CC(=O)OCC1CC1` showed a melting point of 55 to 58 °C.

`CCCCC1(CCCC)CS(=O)(=O)c2ccc(N(C)C)cc2[C@@H](c2ccc(OCCCCCN(CC(=O)O)CC(=O)O)cc2)[C@H]1O` came in with a melting point of 148 to 162 °C.

In turn, `CCc1cc(SCc2ccc(-c3ccccc3C#N)cc2)n2nccc2n1` gave a melting point of 153 to 155 °C.

In turn, `CCOC(=O)C1(C(=O)OCC)CCC=C2C1CCC1=Cc3c(cnn3-c3ccc(F)cc3)CC12C` (configuration not stated) came in with a melting point of 133 to 135 °C.

The molecule `CCc1cc(=O)n(CCC(C(=O)NO)N(C)S(=O)(=O)c2ccc(Oc3ccccc3)cc2)c(=O)[nH]1` (configuration not stated) showed a melting point of 177 to 179 °C.

`CC(C)C1Cc2cnc3c(c2C1=O)CCO3` (configuration not stated): the melting point lay in the range of 68 to 69 °C.

On to `O=C1c2c(ccc3c2OCCO3)S(=O)(=O)N1CCCCO`, for which the melting point is 119 to 122 °C.

On to `O=C(Nc1cccc(C(F)(F)F)c1)C(=O)N1CCC(Cc2ccc(F)cc2)CC1`, for which the melting point fell in the range of 113 to 115 °C.

Regarding `CCCCCCCCc1c(C)[nH]c(C)c(I)c1=O`, the melting point fell in the range of 224 to 226 °C.

`Cc1ccccc1-c1nc(OCCN(C)C)ncc1N(C)C(=O)C(C)(C)c1cc(C(F)(F)F)cc(C(F)(F)F)c1` came in with a melting point of 140 to 141 °C.

In turn, `CC(C)(C)OC(=O)N1CCC(Nc2ccc3nc(NC(=O)c4ccc(C(C)(C)C)cc4)cn3n2)C1` (configuration not stated) returned a melting point of 264 to 265 °C.

Regarding `O=S(=O)(NC(=NO)Nc1ccc(Cl)cc1)c1ccc(-c2ccccn2)s1`, the melting point came out at 210 °C.

For `O=C(O)c1ccc(-c2nnc3n2-c2cccnc2Nc2ccccc2-3)cc1`, the melting point is > 300 °C.

For `COc1ccc2c(c1)Sc1c(cc(OC)c(OC)c1Br)N2C(C)=O`, the melting point lay within 147 to 149 °C.

`CCOC(=O)Cc1cnn(CC)c1O` returned a melting point of 107 to 108 °C.

Consider `CN(C)c1ccccc1CC(=O)N1C[C@@H]2[C@H](F)CCC(c3ccccc3)(c3ccccc3)[C@@H]2C1`, for which the melting point was determined as 186 °C.

For `O=C1C=CC(c2cccc(F)c2)(c2cccc(F)c2)CC1`, the melting point came out at 95 °C.

As for `COC(=O)C1(F)C(=O)N(C)C(=O)NC1O` (configuration not stated), the melting point fell in the range of 160 to 161 °C.

For the molecule `CC1(COC2CC3C4CCC5=CC(=O)CCC5(C)C4(F)C(O)CC3(C)C2(O)C(=O)CO)CO1` (configuration not stated), the melting point was in the range of 223 to 227 °C.

The molecule `COC(=O)C[C@H]1S[C@H](c2cccc(OC)c2OC)c2cc(Cl)ccc2N(CC(C)(C)C)C1=O` registered a melting point of 170 to 171 °C.

Molecule `COc1nc2cnccc2nc1NS(=O)(=O)c1cccc(Cl)c1Cl` returned a melting point of 256 to 257 °C.

Take `COc1ccc(OC)c(C#N)c1C#N`: the melting point was in the range of 276 to 280 °C.

`CCC(=O)N1CC(=O)C2=C(C1)CN1NC(N3CCOCC3)=NC1=N2` gave a melting point of 278 to 280 °C.

For the molecule `CCCc1nc2cnc3ccccc3c2n1CCCCNS(C)(=O)=O`, the melting point lay in the range of 133 to 135 °C.

As for `Oc1ccc(Cn2ccn(C3CCc4ccccc4C3)c2=S)cc1O` (configuration not stated), the melting point lay within 173 to 174 °C.

Molecule `Fc1cccc2c1OC(CN1CC=C(c3c[nH]c4ccccc34)CC1)CO2` (configuration not stated) showed a melting point of 174 to 177 °C.

`CCc1cn2c(N)c(Cl)cc(C(=O)NCC3CCN(CC4(O)CCOCC4)CC3)c2n1` came in with a melting point of 229 °C.

For `c1ccc(N=c2sc3ccccc3s2)cc1`, the melting point was in the range of 67 to 68 °C.

`CCCCCCCCCCc1ccc(-c2ccc(OC)c(F)c2)cc1`: the melting point was determined as 102 °C.

`O=C(Nc1ccc(C(=O)N2Cc3ccccc3Cc3ccccc32)cc1)c1sc2ccccc2c1Cl` showed a melting point of 252 to 254 °C.

In turn, `O=S(=O)(Nc1ccccc1OCc1ccc2ccccc2n1)c1cccc(C(F)(F)F)c1` came in with a melting point of 154 to 155 °C.

With `CC(=O)NC(COc1ccccc1)C(=O)O` (configuration not stated), the melting point lay within 90 to 92 °C.

Take `COc1cccc2c1C(=O)c1c(OC)cc(C(=O)N(C)O)cc1C2=O`: the melting point was 182 °C.

In the case of `O=c1c(Cl)cc2nc3ccc(F)cc3sc-2c1Cl`, the melting point lay within 256 to 258 °C.

The molecule `Cn1cc(-c2cc(-c3ccc4[nH]ccc4c3)ccn2)n(-c2ccc(C(C)(C)C#N)cc2)c1=O` had a melting point of 238 °C.

Molecule `NC(=O)NN=Cc1ccc(Oc2cc(Cl)ccn2)cc1` came in with a melting point of 231 to 233 °C.

On to `CCC1(Cl)Cc2cc(OC(C)(C)C(=O)O)c(Cl)c(Cl)c2C1=O` (configuration not stated), for which the melting point is 164 to 165 °C.

`CCOC(=O)C(C#N)=CNc1ccc(-c2ccccc2)cn1` returned a melting point of 119 to 126 °C.

In turn, `CN1C(=NC(=O)c2ccc(F)cc2)C(C(F)(F)F)(C(F)(F)F)NC1c1ccc(F)cc1` (configuration not stated) registered a melting point of 132 to 133 °C.

Molecule `O=C(NCc1ccccc1)Nc1ccc(CN2C(=O)[C@H]3CCC[C@H]3N(C(=O)CN3C(=O)c4ccccc4C3=O)c3ccccc32)cc1` (relative stereo) gave a melting point of 169 to 171 °C.

Consider `O=C(O)c1cnn(CCCCN2CCN(C(c3ccccc3)c3ccccc3)CC2)c1`, for which the melting point was in the range of 70 to 74 °C.

Regarding `COc1c(N2CCC(N)C2)c(F)c(N)c2c(=O)c(C(=O)O)cn(C3CC3)c12` (configuration not stated), the melting point was 254 to 257 °C.

`CC(=O)ON1C(C)(C)CC(OC(=O)c2cccc(C(=O)OC3CC(C)(C)N(OC(C)=O)C(C)(C)C3)c2)CC1(C)C` gave a melting point of 98 to 101 °C.

Molecule `COc1cc(-n2nc(C(=O)N(C)C)c3c4ccc(Cl)cc4n(C)c3c2=O)ccn1` gave a melting point of 237 to 238 °C.

For the molecule `Clc1c[nH]c2ncnc(N3CCCCC3)c12`, the melting point lay within 170 to 172 °C.

Regarding `CC(C)(C)OC(=O)[C@@H]1CC[C@H](CC(=O)O)N1Cc1ccccc1`, the melting point lay within 95 to 96 °C.

Consider `CC(C)(C)OC(=O)NCCCn1c2c(c3ccc(NC(=O)C(=O)O)cc3c1=O)C(=O)c1ccccc1-2`, for which the melting point was in the range of 267 to 268 °C.

Consider `COc1cccc(NC(=O)C2=C(O)c3ccc4ccccc4c3S(=O)(=O)N2C)c1`, for which the melting point fell in the range of 242 to 244 °C.

`COc1ccc(C(=O)c2ccc(Cl)cc2F)c(Cl)c1Cl` displayed a melting point of 115 to 116 °C.

Consider `Cc1ccc(Oc2ccc(-n3cc(C(=O)O)cn3)cc2)c(O)c1`, for which the melting point was 231 to 233 °C.

Molecule `O=C(CCCO)NCc1ccccc1` showed a melting point of 70 to 72 °C.

The molecule `CCS(=O)(=O)C1=NCN(S(=O)(=O)CC)S1` yielded a melting point of 42 °C.

For `Cc1ccccc1-c1cc2cnc(N)nc2nc1N`, the melting point fell in the range of 300 to 302 °C.

The molecule `Cc1ccccc1-c1ncc(NC(=O)OCc2ccccc2)c(=O)n1CC(=O)NC(Cc1ccccc1)C(=O)C(F)(F)F` (configuration not stated) returned a melting point of 127 to 129 °C.

`COCCOc1cc(N(C)S(=O)(=O)c2cccs2)c2[nH]c(C(=O)O)cc2c1`: the melting point was in the range of 198 to 199 °C.

For the molecule `NNC(=S)C12CC3CC(CC(C3)C1)C2`, the melting point is 204 to 206 °C.

Take `Cc1ccc(-c2ccc3c(c2)C=C(C(=O)Nc2ccc(CN4CCCCC4)cc2)CO3)cc1`: the melting point lay within 196 to 197 °C.

The molecule `CN(C(=O)OC(C)(C)C)c1ccc(-c2ncn(-c3ccc(OC(F)(F)F)cc3)n2)cc1` returned a melting point of 125 to 128 °C.
